The source of these data is patent publication US11147816B2, “Composition for inducing differentiation and protection of neural stem cells and method for inducing neuro-regeneration using the same composition” (GENUV Inc., priority 2016, dated 2021).

The test system of data set [1] is 5XFAD mouse. Nature of the data set: TUNEL assay, neuroprotective activity (Example 10). Particulars: orally daily for 28 days, vs vehicle. Format: in vivo. As for the experimental part:
The sagittal brain tissue slides described in Example 8 were rehydrated and stained with the TUNEL assay kit (Promega, Wis., USA, cat#. G3250). Specifically, the brain tissue slides were permeabilized with 20 μg/ml proteinase K solution for 10 minutes, incubated with equilibration buffer for 10 minutes, and then incubated with TdT solution at 37° C. for 1 hour. The staining of the somatosensory cortex and subiculum area, areas known to show significant cell death in 5XFAD mouse, were observed. TUNEL assay was also performed on the tissue slides of normal adult mouse brain (as control) to confirm that staining was properly done.

Data set [2] relates to 5XFAD mouse. The experiment in a line: Tuj1 expression in the somatosensory cortex (Example 9-1). Format: in vivo. Particulars: 0.1 mg/kg orally daily for 28 days, vs vehicle. As for the experimental part: Anti-Tuj1 antibodies were added to the brain tissue slides of 5XFAD mouse in Example 8 and incubated at 4° C. for 1 day, after which the tissue slides were fluorescently stained by incubating with Fluorescein isothiocyanate (FITC)-secondary antibodies (Invitrogen, cat#. A21121) at room temperature for 1 hour. In FIG. 15, the areas marked with arrows (→) indicate cells stained with Tuj1 and the areas marked with arrowheads (▾) indicate plaques formed by amyloid-beta aggregation. Plaques were present in both vehicle-treated and trametinib-treated groups.

In data set [3] the test system is mouse adult neural stem cells. Particulars: trametinib 10 nM, 100 nM, memantine 5 μM, 10 μM, 4 days. The procedure: NSC were isolated from the subventricular zone of week 8 mouse brain, treated with 20 ng/ml human basic fibroblast growth factor (bFGF) and 20 ng/ml human epidermal growth factor (EGF) in an IPM medium, and cultured as a suspension in 24-well plates for 7 days.
Two days before the isolation of single cells, 6-well plates were prepared by treating the wells with 10 μg/ml poly-L-ornithine solution and incubating overnight at room temperature for coating. The next day, poly-L-ornithine solution was removed and the plates were washed 3 times with sterilized triple distilled water. […] The culture solution used is N2 culture medium (supplemented with 20 ng/ml bFGF and 20 ng/ml EGF). Right before seeding, the coating solution was suctioned out, and the single cells were uniformly seeded into the culture plate before the plate dried up. Cells were allowed to attach to the plates for about one minute, and after checking that cells were sufficiently attached, an additional 1.5 ml of culture medium (N2 culture medium with 20 ng/ml bFGF and 20 ng/ml EGF) was added to the cells and cultured in a 37° C. incubator for 24 hours.
Wells not treated with amyloid-beta were left to use as negative controls.
Gibco's (Waltham, Mass.) human Aβ (1-42) was purchased to use for the amyloid-beta (Aβ), and the following process was followed to create oligomers. First, amyloid-beta was dissolved in 100% HFIP (1,1,1,3,3,3-hexafluoro-2-propanol) (Sigma, cat#.105228) to obtain a concentration of 1 mg/ml and vortexed at room temperature for 1 hour. Then, it was dried for 10 minutes in a speed Vac, after which DMSO (Sigma, cat#.D2650) was added to bring the concentration to 5 mM and then lightly vortexed at room temperature for 10 minutes. […] The solution was incubated at 4° C. for 24 hours and then added into the cultured cells.
The NCSs were cultured with the daily addition of EGF, bFGF, amyloid-beta, and test materials for 4 days.

Data set [4] concerns 5XFAD mouse. The experiment in a line: NeuN immunohistochemical staining, number of neurons in the Alzheimer's disease mouse model (Example 8).
Procedure: For the BrdU staining to be performed later, 50 mg/kg of BrdU (Sigma, cat#. B5002) was added to the daily dose for the last 5 days. The mouse was then anesthetized and perfused with PBS for the extraction of the brain. […] The other half of the hemispheres plus another 3 extracted mice brains per group were placed in 10% formalin solution at 4° C. for 1 day, which was then followed with the proceeding steps to allow good penetration of paraffin into the brain tissue. The brain tissues were immersed sequentially in 70%, 80%, 95%, 100% alcohol for 1 hour each for dehydration, then immersed in xylene 3 times for 1 hour each for clearing, and embedded in paraffin by placing in liquid paraffin 2 times for 1 hour each. After these procedures, the paraffin-embedded brain tissue (paraffin block) was cut into 5 μm sections, mounted on slides, and stored at room temperature. Prior to immunohistochemical staining, the tissues on the slides were rehydrated by sequentially immersing in xylene, 100%, 90%, 80%, 70%, 50% alcohol,and then water for 5 minutes each. […] The next day, the slides were incubated with anti-rabbit antibodies (Vector lab, cat#. PI-1000) at room temperature for 1 hour and then stained with DAB staining for the analysis of the neuronal distribution in the brain.
FIG. 12b indicates the number of NeuN stained cells counted and represented as the percentage of the number of cells per unit area in the somatosensory cortex layer 5 region. Area samples were taken from 3 areas per mouse, 3 mice per group, so the number of cells counted was from a total of 9 areas.
FIG. 13b indicates the number of NeuN stained cells counted and represented as the percentage of the number of cells per unit area in the motor cortex layer 5 region. Area samples were taken from 6 areas per mouse, 3 mice per group, so the number of cells counted was from a total of 18 areas.
FIG. 14b indicates the number of NeuN stained cells counted and represented as the percentage of the number of cells per unit area in the dotted area of the hippocampal subiculum shown in FIG. 14a. Area samples were taken from 3 areas per mouse, 3 mice per group, so the number of cells counted was from a total of 9 areas.
A further data set deals with Aβ(1-40) and Aβ(1-42). Nature of the data set: ELISA of Aβ(1-40) and Aβ(1-42) in brain hemispheres (Example 13). The format is in vivo, mouse. The settings on record: orally daily for 28 days, vs vehicle. As for the experimental part:
Using the ground powder of 5XFAD mouse brain hemispheres obtained in Example 12, the amount of Aβ(1-40) and Aβ(1-42) was quantified by ELISA (enzyme-linked immunosorbent assay). […] After measuring the protein concentration, dilution buffer was added to obtain 30˜50 μg of protein in 100 μl solution. 100 μl each of anti-Aβ(1-40) and Aβ(1-42) antibodies were added to the 96-well plates, incubated at room temperature for 2 hours, then removed and washed 4 times with wash buffer. 100 μl each of HRP-conjugated secondary antibodies was added and incubated at room temperature for 30 minutes. The solution was then removed and washed again 4 times with wash buffer. 100 μl of the […] was added to the wells, incubated in the dark for 30 minutes, and 100 μl of the stop solution added to terminate the reaction. Then, the chemiluminiscence reaction was measured at 450 nm with an ELISA plate reader. The absorbance was converted in reference to the standard concentration and the concentration of each protein was determined. The amount of Aβ(1-40) and Aβ(1-42) in reference to the total amount of protein (30˜50 μg) was calculated, and then the amount of Aβ(1-42) in reference to the amount of Aβ(1-40) was calculated.

Data set [5] concerns 5XFAD mouse. The experiment in a line: Cerebellar Purkinje cell Tuj1 and calbindin staining (Example 11). Particulars: particularly 0.1 mg/kg, orally daily for 28 days, vs vehicle. Format: in vivo. From the text: Two slides for Tuj1 staining and three for calbindin staining are shown for each treatment group.
The test system of data set [6] is mouse embryonic neural stem cells. The experiment in a line: Morphology analysis of NSC differentiation in mouse embryonic neural stem cells (Examples 1, 6). The format is cell-based. As for the experimental part:
Neural stem cells were isolated from the brain of a day 14.5 mouse embryo, treated with 10 ng/ml human basic fibroblast growth factor (bFGF) (Peprotech, Princeton, NG, cat#.100-18B) and 20 ng/ml human epidermal growth factor (EGF) (Peprotech, cat#. AF-100-15) in a N2 culture medium, and cultured in suspension in a 25 cm2 flask (Nunc, Pittsburgh, Pa.) for 4 days. Formation of neurospheres was observed after 2 days.
In order to isolate single cells, 6-well plates were prepared the day before by treating the wells with 15 μg/ml poly-L-ornithine (Sigma, St. Louis, Mo., cat#.P2533) solution and incubating overnight at 37° C. for coating. The day of the single cell isolation, poly-L-ornithine solution was removed, the plates were washed with PBS three times, and 10 μg/ml fibronectin (Gibco, Waltham, Mass., cat#. 33016015) solution was added and incubated at 37° C. for 2 hours for coating.
Various concentrations of the compound of [Formula 1] […]

The next data set has as its system pERK. The experiment in a line: Western blotting of pERK in brain hemispheres (Example 12). The settings on record: 0.1 mg/kg and 1.0 mg/kg orally daily for 28 days, vs vehicle. In general terms: A western blot detects proteins with antibodies after separation by electrophoresis.
[7] abbreviates: 0.1 mg/kg and 1.0 mg/kg orally daily for 28 days, vs vehicle.

Procedure for pERK: The mouse was then anesthetized and perfused with PBS for the extraction of the brain. Of the brains extracted from 3 mice of each group, half of the brain tissue (hemispheres) was immediately stored in the deep freezer for western blotting and ELISA experiments to be performed later.
The powder was divided into 6 parts, put into new tubes, and placed back into the deep freezer. […] The powder was carefully suspended with a pipette in RIPA buffer, incubated on ice for 10 minutes, centrifuged at 13000 rpm, 4° C., and the supernatant was collected. […] The protein bands were detected with a photosensitive imaging system (FIG. 19a). In order to quantify the change in pERK expression, the expression levels of pERK and ERK were measured by densitometry, and the expression level of pERK was normalized against the expression level of ERK.

As to `CC(=O)Nc1cccc(-n2c(=O)n(C3CC3)c(=O)c3c(Nc4ccc(I)cc4F)n(C)c(=O)c(C)c32)c1` [trametinib, N-(3-{3-cyclopropyl-5-[(2-fluoro-4-iodophenyl)amino]-6,8-dimethyl-2,4,7-trioxo-3,4,6,7-tetrahydropyrido[4,3-d]pyrimidin-1(2H)-yl}phenyl)acetamide], the “number of TUNEL stained cells in the somatosensory cortex and subiculum” value in the data set with 5XFAD mouse [1] was “significantly lower”. In addition, the “number of cells stained with Tuj1, somatosensory cortex” value in the data set on 5XFAD mouse [2] is “significant increase in the number of cells stained with Tuj1”. Moreover, the “cell toxicity / cell death (morphology)” value in data set [3] (AS703026 10 μM) was “did not elicit cell toxicity”. For the same compound, the “differentiation of NSC into neurons (morphology)” value in data set [3] (with or without 10 μM oligomeric Aβ(1-42)) was “readily induced the differentiation of NSC into neurons”. Further, in the data set on 5XFAD mouse [4] (setting [7]), the “number of NeuN stained neurons, hippocampal subiculum” value is “significant increase in the number of neurons”; the “number of NeuN stained neurons, motor cortex layer 5” value is reported as “significant increase in the number of neurons”; the “number of NeuN stained neurons, somatosensory cortex layer 5” value is “significant increase in the number of neurons stained with NeuN”. For the same compound, the “dose showing neural stem cell differentiation-inducing activity” value in the data set on 5XFAD mouse [4] (5xFAD mouse experiments) was 0.1 mg/kg/day. Also, the “amount of Aβ(1-42)/Aβ(1-40)” value in the data set on Aβ(1-40) and Aβ(1-42) was “decreased”. Besides, in the data set with 5XFAD mouse [5], the “Purkinje cell axon structure” value is on record as “increased axon arborization or at least with preserved axon structure”. The “differentiation of NSC into neurons (morphology)” value in data set [6] (10 nM, 25 nM and 100 nM, added daily, 4 days) is given as “readily induced the differentiation of NSC into neurons”. In addition, the “NSC differentiation-inducing effect (morphology)” value in data set [6] (0.1 μM, day 2 of culture) is recorded as “excellent NSC differentiation-inducing effect”. Besides, the “concentration at which the differentiation-inducing effect is seen” value in data set [6] (added daily, 4 days of culture) is reported as no less than 10 nM. In the data set on pERK, the “protein level of pERK in the brain” value was “considerably lower”.
